The structures appear in SMILES notation.

The target in the first experiment is T1, human recombinant Yes [a.a. 2–543 (end)] (Homo sapiens, UniProt P07947).
T1 construct: human recombinant Yes [a.a; 2–543 (end)]; purchased BPS Bioscience 40488
T1 sequence (P07947 2-543): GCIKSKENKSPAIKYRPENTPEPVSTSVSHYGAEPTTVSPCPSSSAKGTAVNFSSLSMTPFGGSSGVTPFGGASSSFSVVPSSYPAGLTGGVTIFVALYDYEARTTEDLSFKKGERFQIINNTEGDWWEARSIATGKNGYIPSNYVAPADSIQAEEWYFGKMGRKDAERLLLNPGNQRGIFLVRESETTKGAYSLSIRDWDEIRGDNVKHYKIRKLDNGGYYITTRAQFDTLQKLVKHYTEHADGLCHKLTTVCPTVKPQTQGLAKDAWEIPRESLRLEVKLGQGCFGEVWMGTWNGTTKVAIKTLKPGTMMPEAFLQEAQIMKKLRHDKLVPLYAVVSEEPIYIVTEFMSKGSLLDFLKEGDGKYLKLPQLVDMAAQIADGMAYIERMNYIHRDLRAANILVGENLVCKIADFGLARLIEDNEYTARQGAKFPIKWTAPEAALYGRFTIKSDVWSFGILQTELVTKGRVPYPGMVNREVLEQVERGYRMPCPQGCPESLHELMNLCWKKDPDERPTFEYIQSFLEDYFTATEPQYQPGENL
The experiment can be described thus: ADP-Glo kinase assay, inhibition rates of Yes phosphorylation activity (first and second screening). As to conditions: first screening; mean of n = 4 wells; 10 μmol L−1 compound. Type of experiment: biochemical. Put shortly:
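ADP-Glo luminescence measured inhibition of human recombinant Yes (a.a. 2–543) phosphorylation activity. In the first screen, each compound ran in 4 wells and inhibition rates were averaged. The second screen retested hits as compounds dissolved from fresh powder.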
Background: ADP-Glo first removes unused ATP, then detects ADP through luciferase.
For the compound `CC1CCN(c2ccc([N+](=O)[O-])cc2C(=O)N2CCN(Cc3cn4cc(Cl)ccc4n3)CC2)CC1` [Compound Z901305410], the “First screening IR (inhibition rate)” value is recorded as -17%.

On to `Cc1c(C(=O)N2CCN(C(=O)C3CCS(=O)(=O)C3)CC2)[nH]c2c1C(=O)CC(C)(C)C2` (centres unmarked) [Compound Z164965524], for which the “First screening IR (inhibition rate)” value is 25%. Still for that read-out and setting: the figure for `CCN(CC)Cc1ccccc1CNC(=O)c1c(C)nn(-c2ccc(F)cc2)c1C` [Compound Z117807680] is 9%. Same read-out and setting: the same measure for `CN(C)c1ccc(Nc2nccc(C(F)(F)F)n2)cn1` [Compound Z319012738]: 2%. As to `O=C(Nc1n[nH]c(-c2ccc(F)cc2)n1)c1csc2c1CCCC2` [Compound Z119708890], the “First screening IR (inhibition rate)” value is given as -5%. As for `O=S1(=O)CCC(S(=O)(=O)c2ccccc2)C1` (centres unmarked) [Compound Z57056479], the “First screening IR (inhibition rate)” value is given as 4%. Same read-out and setting: the same measure for `Cn1ccc2c(NC(=O)NCc3ccnc(N4CCCC4)c3)cccc21` [Compound Z1040576806]: -8%; for `CCOC(=O)c1c(-c2ccc(C)cc2)csc1Nc1nc2ccccc2nc1N1CCN(CC)CC1` [Compound Z56854384]: -3%; for `Cc1cc(SCC(=O)NC(=O)NC2CCCC2)nc2ccccc12` [Compound Z20243594]: 8%.

With `Cl.N#Cc1ccc(-c2cc(-c3ccccc3)c3cc(Cl)ccc3n2)cc1` [Compound Z48950825], the “First screening IR (inhibition rate)” value was 58%.

In the case of `Cc1cc(SCC(=O)c2cc(C)n(-c3ccccc3F)c2C)nc2ccccc12` [Compound Z20243606], the “First screening IR (inhibition rate)” value came out at 5%. On the same count and under the same terms, the same measure for `O=C(Nc1n[nH]c(-c2ccc(F)cc2)n1)c1ccccc1F` [Compound Z108549754]: -11%; for `O=C(Nc1nc(-c2ccccc2)cs1)c1cc2ccccc2s1` [Compound Z87524039]: 20%; for `CCOc1ccc(NC(=O)c2ccccc2NC(=O)CN2CCOCC2)cc1` [Compound Z46179735]: 14%.

For the compound `CNC(=O)c1cnc(/C=C/c2cccnc2)s1` [Compound Z1029489284], the “First screening IR (inhibition rate)” value came to 5%. Still for that read-out and setting: the figure for `Cc1cc(C)c(C(=O)CSc2nnc(-c3c[nH]c4ccccc34)n2CC2CCCO2)c(C)c1` (centres unmarked) [Compound Z18647134] is -1%.

For `Cc1occc1S(=O)(=O)CCCS(=O)(=O)C(C)C` [Compound Z1822689954], the “First screening IR (inhibition rate)” value is recorded as -9%. Consider `CC1CN(C(=O)Nc2ccccn2)CCN1C(=O)Nc1ccccn1` (centres unmarked) [Compound Z827524892], for which the “First screening IR (inhibition rate)” value is -21%. Same read-out and setting: the figure for `CC1(C)CCCN(S(=O)(=O)CCCS(C)(=O)=O)CC1` [Compound Z1271277951] is -3%. On the same count and under the same terms, the figure for `Cc1c(C(=O)Nc2cnn(C)c2)c(=O)[nH]c2ccccc12` [Compound Z1343740230] is 23%. Same read-out and setting: the figure for `COc1cc(/C=C/C(=O)N2CCCC2c2c(C)nn(C)c2C)cc(Br)c1O` (centres unmarked) [Compound Z1634598040] is 41%.

For `Cc1ncc(C(=O)NC(C)c2cccc(NC(=O)c3ccccc3)c2)[nH]1` (centres unmarked) [Compound Z1171689075], the “First screening IR (inhibition rate)” value is reported as -17%. Same read-out and setting: the figure for `NC(=O)C(c1ccccc1)N1CCC(CCc2ccc(O)cc2)CC1` (centres unmarked) [Compound Z245304076] is -19%. The same measure, in the same setting: the figure for `CCN(CC)S(=O)(=O)c1ccc(NC(=O)CNC(=O)C23CC4CC(CC(C4)C2)C3)cc1` [Compound Z31827545] is 8%; for `C(=C1\CCCc2c1nc1ncnn1c2-c1ccccc1)/c1ccccc1` [Compound Z56784273] it is 0%.

With `COc1cc(/C=C2/C(=O)Nc3ccc(Cl)cc32)cc(Cl)c1OC(F)F` [Compound Z44304760], the “First screening IR (inhibition rate)” value is listed as 4%. The same measure, in the same setting: the figure for `O=c1c2ccc3c(=O)n4c5cccc6cccc(nc4c4ccc(c2c34)c2nc3ccccc3n12)c65` [Compound Z56768422] is -6%; for `Cc1cc(C)c(C)c(S(=O)(=O)N(C)C2CCS(=O)(=O)C2)c1C` (centres unmarked) [Compound Z71311814] it is 1%.

For `Cc1cccc(=O)n1CCCCNc1cnc2ccccc2n1` [Compound Z1084012684], the “First screening IR (inhibition rate)” value was found to be 10%. On the same count and under the same terms, the same measure for `CCOc1ccc(-n2c(SCC(=O)c3ccc[nH]3)nnc2-c2ccccc2Cl)cc1` [Compound Z18672879]: 7%. In the case of `COc1ccc(OC)c2c1CN(c1nc(CN3CCOCC3)nc3sc(C)c(C)c13)CC2O` (centres unmarked) [Compound Z128154998], the “First screening IR (inhibition rate)” value is given as 47%.

On to `c1ccc2nc(Nc3cn[nH]c3)cnc2c1` [Compound Z729018028], for which the “First screening IR (inhibition rate)” value was determined as 45%. The same measure, in the same setting: the figure for `O=C(Nc1cc(-c2cccc([N+](=O)[O-])c2)sc1C(=O)O)c1cc2c(s1)CCC2` [Compound Z204341220] is -3%. For `COc1cc(CNC(=O)c2ccc[nH]c2=O)ccc1OCC(N)=O` [Compound Z666252570], the “First screening IR (inhibition rate)” value was 1%. Still for that read-out and setting: the same measure for `CCOC(=O)c1c(-c2ccc(F)cc2)csc1NC(=O)CN1CCN(Cc2cc(OC)ccc2OC)CC1` [Compound Z46402002]: 5%. Same read-out and setting: the same measure for `CCCCn1c(CN2CCN(C(=O)c3ccco3)CC2)nc2c1c(=O)[nH]c(=O)n2Cc1ccccc1` [Compound Z104777504]: -22%. Turning to `CC(C)CN(C1CCS(=O)(=O)C1)S(C)(=O)=O` (centres unmarked) [Compound Z133987698], the “First screening IR (inhibition rate)” value is recorded as 12%. With `Cn1ncc2c(N3CCOC(Cn4cccn4)C3)ncnc21` (centres unmarked) [Compound Z1139215576], the “First screening IR (inhibition rate)” value is 18%. On to `Cc1ccc(-c2cc(-c3ccccc3)c3cc(Cl)ccc3n2)cc1.Cl` [Compound Z48950811], for which the “First screening IR (inhibition rate)” value is recorded as 59%. On the same count and under the same terms, the figure for `COc1cccc(-c2cc(-c3ccccc3)c3ccccc3n2)c1.Cl` [Compound Z48951025] is -6%; for `CCS(=O)(=O)Nc1ccc(C2=NN(S(=O)(=O)c3ccc(C)cc3)C(c3ccco3)C2)cc1` (centres unmarked) [Compound Z57514609] it is 23%; for `Cn1ncc2c(N3CCN(CC[S+]([O-])c4cc(Cl)ccc4Cl)CC3)ncnc21` (centres unmarked) [Compound Z445169626] it is 4%.

`CCn1c(CN2CCN(C(=O)c3ccccc3)CC2)nc2cc(S(=O)(=O)N3CCOCC3)ccc21` [Compound Z46404320]: the “First screening IR (inhibition rate)” value is given as 1%. In the case of `COc1ccc2ccc(OCc3nc(N)nc(N(C)C)n3)cc2c1` [Compound Z168975100], the “First screening IR (inhibition rate)” value stood at 6%.

Turning to `CCCCC(CC)CN1C(=O)/C(=C/c2c(NCCCn3ccnc3)nc3c(C)cccn3c2=O)SC1=S` (centres unmarked) [Compound Z56863942], the “First screening IR (inhibition rate)” value is recorded as 0%. The same measure, in the same setting: the figure for `Cc1c(C(=O)Nc2ccnn2C2CCCC2)oc2c(Cl)cccc12` [Compound Z28468306] is 0%. `CC(Sc1ccc2c(c1)CCC2)C(=O)Nc1sc2c(c1C(N)=O)CCC2` (centres unmarked) [Compound Z113592752]: the “First screening IR (inhibition rate)” value is listed as 1%. In the case of `CCN1CCC(NC(=O)C2CCN(S(=O)(=O)c3c(C)c(C)cc(C)c3C)CC2)CC1` [Compound Z85145044], the “First screening IR (inhibition rate)” value was 6%.

`O=C(NCC(Cc1ccccc1)C(=O)O)c1ccc(-n2ccnc2)cc1` (centres unmarked) [Compound Z1603513622]: the “First screening IR (inhibition rate)” value stood at 15%. The same measure, in the same setting: the figure for `CCc1ccccc1NC(=O)CNC(=O)c1cc2ccccc2[nH]1` [Compound Z27562098] is 48%. Regarding `Cc1cc(-c2ccccc2)cc2c3ccccc3c3ccccc3[n+]12.[O-][Cl+3]([O-])([O-])[O-]` [Compound Z56761787], the “First screening IR (inhibition rate)” value is listed as 4%.

On to `COc1cccc(-c2cc(-c3ccc(Cl)cc3)c3ccccc3n2)c1` [Compound Z1844441844], for which the “First screening IR (inhibition rate)” value stood at 48%.

For `NC(=O)C(NCCCN1CCc2ccccc21)c1ccccc1` (centres unmarked) [Compound Z320065982], the “First screening IR (inhibition rate)” value is given as -17%. As to `CC(C)n1ncc2cc(C(=O)NCc3ccc(-n4ccnc4)c(F)c3)cnc21` [Compound Z826159196], the “First screening IR (inhibition rate)” value was found to be 9%. On the same count and under the same terms, the figure for `COC(=O)c1cc(S(=O)(=O)Oc2ccc3c(C(C)C)cc(=O)oc3c2)cn1C` [Compound Z1309300961] is 1%; for `Cc1cccc(C(C)C)c1NC(=O)CSc1nc2ccc(Cl)cc2[nH]1` [Compound Z16257955] it is 4%; for `O=C(CCc1ccc(-c2ccccc2F)o1)Nc1cccc(NC(=O)CCn2ccnc2)c1` [Compound Z431623528] it is 5%. Regarding `COc1ccc(CN2C(=O)c3ccccc3C2=O)cc1C(=O)Nc1ccc(N2CCN(C)CC2)cc1C` [Compound Z27972767], the “First screening IR (inhibition rate)” value was found to be 17%. For `C=CCn1c(=O)c2ccccc2n2c(SCC(=O)Nc3ccc(N4CCN(C)CC4)cn3)nnc12` [Compound Z432326346], the “First screening IR (inhibition rate)” value amounted to 8%.

As for `CC(CNC(=O)c1ncncc1Br)CN1CCN(C)CC1` (centres unmarked) [Compound Z1936607769], the “First screening IR (inhibition rate)” value was -11%. As to `O=S(=O)(Nc1ccc(N2CCOCC2)cc1)c1ccc(Cl)c(C(F)(F)F)c1` [Compound Z45660528], the “First screening IR (inhibition rate)” value is -2%. Same read-out and setting: the same measure for `CCn1c(O)c(N=Nc2ccc([N+](=O)[O-])cc2S(=O)(=O)Nc2ccc(C)cc2C)c2ccccc21` [Compound Z49643067]: 44%.

The same experiment, now with this note: second screening, dissolved from fresh powder; n = 4; 10 μmol L−1 compound.
With `COc1ccc(OC)c2c1CN(c1nc(CN3CCOCC3)nc3sc(C)c(C)c13)CC2O` (centres unmarked) [Compound Z128154998], the “Second screening IR (inhibition rate)” value is -4%. `c1ccc2nc(Nc3cn[nH]c3)cnc2c1` [Compound Z729018028]: the “Second screening IR (inhibition rate)” value was -12%. Same read-out and setting: the same measure for `Cc1ccc(-c2cc(-c3ccccc3)c3cc(Cl)ccc3n2)cc1.Cl` [Compound Z48950811]: -7%.

Values taken from PMC5607274, “An iterative compound screening contest method for identifying target protein inhibitors using the tyrosine-protein kinase Yes” (Scientific Reports, 2017).
